“Also recorded” adds a separate entry of the source.
Experiments:
MM1-144 [1] = experiment: MTS assay (cell viability / metabolic activity); assay type: cell-based, human; conditions: MM144 (MM1-144), 3 days
Procedure: (§1) Percent cell viability was determined using MTS solution (Promega, Madison, Wis.) by measuring absorbance at 490 nm using a Synergy HT Multi-Detection Microplate Reader (BioTek Instruments, Inc., Winooski, Vt.) with untreated cells being 100%. GraphPad Prism (GraphPad Software Inc., La Jolla, Calif.) was used to analyze data by non-linear regression with the log (inhibitor) vs. the response with a variable slope with the IC50 calculated. Data are expressed as a percentage of maximum metabolic activity. The experiments were performed in triplicate.
as §1, with “Metabolic activity” for “Percent cell viability”, “(Promega)” for “(Promega, Madison, Wis.)”, “Instruments Inc.)” for “Instruments, Inc., Winooski, Vt.)”, “Inc.)” for “Inc., La Jolla, Calif.)”, “versus” for “vs.”, “slope.” for “slope with the IC50 calculated.”

U266 [2] = experiment: MTS assay (cell viability / metabolic activity); assay type: cell-based, human; conditions: U266, 3 days
Procedure: as §1
as §1, with “Metabolic activity” for “Percent cell viability”, “(Promega)” for “(Promega, Madison, Wis.)”, “Instruments Inc.)” for “Instruments, Inc., Winooski, Vt.)”, “Inc.)” for “Inc., La Jolla, Calif.)”, “versus” for “vs.”, “slope.” for “slope with the IC50 calculated.”

MM1-144 [3] = experiment: Apoptosis assay (Annexin V / PI flow cytometry); assay type: cell-based, human
Procedure: (§2) Cells were analyzed by flow cytometry using FlowJo software.
(§3) Cells were stained with Alexa Fluor 488-labeled Annexin V and propidium iodide (PI) using the Vybrant Apoptosis Kit #2 (Molecular Probes) as per manufacturer's instructions and analyzed by flow cytometry.

ANBL-6 = experiment: Apoptosis assay (Annexin V / PI flow cytometry); assay type: cell-based, human
Procedure: as §2, §3

8226/S = experiment: Apoptosis assay (Annexin V / PI flow cytometry); assay type: cell-based, human
Procedure: as §2, §3

NCI-H929 [4] = experiment: Apoptosis assay (Annexin V / PI flow cytometry); assay type: cell-based, human
Procedure: as §2, §3

OCI-My5 [5] = experiment: Apoptosis assay (Annexin V / PI flow cytometry); assay type: cell-based, human; conditions: 3 days; for induction of apoptosis, result in words: OCI-My5, 500 pM (also 1 nM)
Procedure: as §2, §3

U266 [6] = experiment: Apoptosis assay (Annexin V / PI flow cytometry); assay type: cell-based, human
Procedure: as §2, §3

MM1-144 [7] = experiment: Cell cycle analysis (PI DNA content, flow cytometry); assay type: cell-based, human; conditions: MM1-144, 500 pM, 4 days
Procedure: (§4) Cells were incubated with 1 ml of hypotonic DNA staining buffer (1 mg/ml sodium citrate, 100 μg/ml PI, 20 μg/ml RNase A, and 0.3% Triton X-100 in dH2O) for 30-60 min at 4° C. in the dark. Cells were analyzed by flow cytometry and cell cycle analysis performed using FlowJo software with the Watson Model.
(§5) Cells were incubated with 1 ml of hypotonic DNA staining buffer (1 mg/ml sodium citrate, 100 μg/ml PI, 20 μg/ml RNase A, and 0.3% Triton X-100) for 30-60 minutes at 4° C. in the dark. Cells were analyzed by flow cytometry and cell cycle analysis performed using FlowJo software with the Watson Model.

NCI-H929 [8] = experiment: as above; assay type: cell-based, human; conditions: NCI-H929, 500 pM, 4 days
Procedure: as §4, §5

OCI-My5 [9] = experiment: as above; assay type: cell-based, human; conditions: OCI-My5, 500 pM, 4 days
Procedure: as §4, §5

OPM-2 = experiment: MTS assay (cell viability / metabolic activity); assay type: cell-based, human
Procedure: as §1
To determine if the HMCLs were sensitive to treatment with IFNα fusion protein, HMCLs were incubated with varying concentrations of anti-CD138-IFNα, and cell viability was assessed. Anti-CD138-IFNα was used to target IFNα to the MM cell lines while anti-CD20-IFNα was used as an untargeted control. […] The MM cell lines differed in their response to treatment with the fusion proteins.

IRF-4 in U266 = experiment: Western blot of IRF-4; assay type: cell-based, human; conditions: U266, 1 nM, 2 days
Procedure: Cells were lysed using RIPA buffer (50 mM Tris HCl pH 8, 150 mM NaCl, 1% NP-40, 0.5% sodium deoxycholate, 0.1% SDS) containing a protease inhibitor cocktail (Roche Applied Science, Indianapolis, Ind.). The cytosolic fractions were reduced with β-mercaptoethanol and separated by SDS-PAGE. Following transfer to nitrocellulose membrane (Whatman, Piscataway, N.J.) and blocking, samples were incubated with the following primary rabbit antibodies: anti-IRF4 (Epitomics, Berlingham, Calif.), anti-glyceraldehyde-3-phosphate dehydrogenase (GAPDH; Sigma), anti-ppRb Ser807/811 (Santa Cruz Biotechnology, Santa Cruz, Calif.), anti-cyclin D (Millipore, Billerica, Mass.), or anti-β tubulin (Abcam, Cambridge, Mass.). Secondary anti-rabbit IgG-HRP (GE Healthcare, Billerica, Mass.) was used and the blots were developed using enhanced chemiluminescence (ECL; Thermo Scientific, Waltham, Mass.).
Cells were lysed using RIPA buffer (50 mM Tris-HCl pH 8, 150 mM NaCl, 1% NP-40, 0.5% sodium deoxycholate, 0.1% SDS) containing a protease inhibitor cocktail (Roche Applied Science). The cytosolic fractions were reduced with β-mercaptoethanol and separated by SDS PAGE. […] Films were imaged using a Multilmage™ Light Cabinet (Alpha Innotech Corp.) and analyzed using NIH Image J. Bands were normalized to a GAPDH loading control and expressed as percentage band intensity of untreated cells.

U266 tumors = experiment: U266 xenograft model in NSG mice; conditions: U266 s.c.
Procedure: For U266 tumors, NOD scid IL-2 receptor gamma chain knock out (NSG) mice were injected subcutaneously with 1×10^7 U226 cells and treated on days 14, 16 and 18 with 100 μg of the indicated proteins. […] Survival was monitored as well as the size of the tumors.
For U266 tumors, experiments were carried out as described above except that NOD-scid IL2rγ^null (NSG) mice were used.

Substance: anti-CD138-IFNα: Fusion protein: murine B-B4 anti-CD138 variable regions, human IgG1κ constant regions, human IFNα2 fused to the antibody C-terminus via SGGGGS linker
- cell viability / growth inhibition (MTS assay), result in words (MM1-144 [1]): more effective than untargeted anti-CD20-IFNα; also recorded: more effective at decreasing cell viability than IFNα alone
- cell viability / growth inhibition (MTS assay), result in words (MM1-144 [1]; listed as Anti-CD138-IFNα2): more effective than recombinant IFNα2
- cell viability / growth inhibition (MTS assay), result in words (U266 [2]): more effective than untargeted anti-CD20-IFNα; also recorded: more effective at decreasing cell viability than IFNα alone
- induction of apoptosis at low concentration, result in words (MM1-144 [3]; MM1-144, 1 pM, 3 days): did not cause apoptosis
- Mode of Action of anti-CD138-IFNα fusion (MM1-144 [3]; MM144): Apoptosis
- induction of apoptosis, result in words (MM1-144 [3]; MM144 (MM1-144), 500 pM, 3 days): caused apoptosis
- Mode of Action of anti-CD138-IFNα fusion (ANBL-6; ANBL-6): Apoptosis
- induction of apoptosis at low concentration, result in words (ANBL-6; ANBL-6, 1 pM, 3 days): did not cause apoptosis
- induction of apoptosis, result in words (ANBL-6; ANBL-6, 500 pM, 3 days, listed as anti-CD138-IFNα2): caused apoptosis
- Mode of Action of anti-CD138-IFNα fusion (8226/S): Apoptosis
- Mode of Action of anti-CD138-IFNα fusion (NCI-H929 [4]; H929): Apoptosis
- induction of apoptosis, result in words (NCI-H929 [4]; H929 (NCI-H929), 500 pM, 3 days, listed as anti-CD138-IFNα2): caused apoptosis
- induction of apoptosis at low concentration, result in words (NCI-H929 [4]; NCI-H929, 1 pM, 3 days): did not cause apoptosis
- induction of apoptosis at low concentration, result in words (OCI-My5 [5]; OCI-My5, 5 pM): able to induce apoptosis
- induction of apoptosis, result in words (OCI-My5 [5]): did not induce apoptosis; also recorded: did not cause apoptosis or blocks to cell cycle progression
- induction of apoptosis, result in words (OCI-My5 [5]; listed as anti-CD138-IFNα2): caused apoptosis
- Mode of Action of anti-CD138-IFNα fusion (U266 [6]; U266): Apoptosis
- induction of apoptosis at low concentration, result in words (U266 [6]; U266, 1 pM, 3 days): able to induce apoptosis
- induction of apoptosis, result in words (U266 [6]; U266, 500 pM, 3 days, listed as anti-CD138-IFNα2): caused apoptosis
- % G1 (MM1-144 [7]): 22.6%
- % G2/M (MM1-144 [7]): 34.3%
- % S (MM1-144 [7]): 29.9%
- >G2 (MM1-144 [7]): 11.2%
- Sub G0/G1 (MM1-144 [7]): 11.3%
- % G1 (NCI-H929 [8]): 41.9%
- % G2/M (NCI-H929 [8]): 24.3%
- % S (NCI-H929 [8]): 21.0%
- >G2 (NCI-H929 [8]): 8.2%
- Sub G0/G1 (NCI-H929 [8]): 18.9%
- % G1 (OCI-My5 [9]): 25.6%
- % G2/M (OCI-My5 [9]): 20.5%
- % S (OCI-My5 [9]): 49.0%
- >G2 (OCI-My5 [9]): 1.5%
- Sub G0/G1 (OCI-My5 [9]): 17.9%
- changes in cell cycle / DNA content, result in words (OCI-My5 [9]): did not cause apoptosis or blocks to cell cycle progression
- cell viability (MTS assay), result in words (OPM-2; OPM-2, 3 days): little or no effect
- cell viability (MTS assay), result in words (OPM-2; OPM-2, treatment increased to 4 days (data not shown)): decrease in viability
- IRF-4 expression (Western blot) (IRF-4 in U266): decrease was similar
- survival / protection against tumor growth, result in words (U266 tumors; 100 μg on days 14, 16, 18): much more effective than untargeted anti-DNS-IFNα
- survival / protection against tumor growth, result in words (U266 tumors; 100 μg on days 14, 16, 18, listed as anti-CD138-IFNα2): highest levels of protection

From patent US9803021B2 (The Regents of the University of California, priority 2012, dated 2017)
